Legend:
[1] = cited from earlier work
healthy volunteers = settings: 300 mg single dose i.v. infusion, eleven healthy volunteers; cited from earlier work
normal rat brain = settings: in vivo

CCN(CC)CCCC(C)Nc1ccnc2cc(Cl)ccc12 (stereo not drawn) [chloroquine]
time to maximum blood levels ([1]; after oral administration): 3 to 5 h
amounts deposited in brain, times smaller than in other body tissues ([1]; in vivo): 7 to 70 times
effects on the electrocardiogram, mean arterial blood pressure, or pulse rate (healthy volunteers): no effects were seen
side effects during i.v. infusion (healthy volunteers): only of subjective side effects
effect of chloroquine on histological brain damage in rats that received DT (normal rat brain): did not reduce the histological rain damage
effect of systemic chloroquine on brain damage caused by Tf-CRM107 (normal rat brain): completely blocked the brain damage

Reference: patent publication US6696064B2 (priority 2000, dated 2004)
